The record followed here is patent publication US9862754B2, “Peptide analogs for treating diseases and disorders” (KeyBioscience AG, priority 2011, dated 2018).

Bridge positions count the residues as written; N and C are the ends. Ends that are not written are not given here.

Experiment [1] is described as follows: Example 3: OGTT after 3 days of oral treatment in DIO rats. It is filed as in vivo, rat. To be noted: doses of 0.5, 1 and 2 mg/kg p.o. On the procedure: (§1) Drug administration were given by per oral (p.o.) gavage b.i.d. during the study period and as single dose in the morning prior to start of OGTT.
(§2) Animals were given 2 g/kg single dose dissolved in milliQ H20.
Following the initial (1st) OGTT, animals were randomized into treatment groups based on FBG and BW. Animals were pre-treated 3 days (b.i.d.) prior to 2nd OGTT. The study was performed in an x-over design with each animal being its own control.
(§3) OGTT Following Overnight Fasting (16 h):
Blood sampling and glycemia were measured by heated tail venous puncture. Whole blood glucose levels were determined with an ACCU-CHEK® Avia blood glucose meter (Roche Diagnostics, Rotkreuz, Switzerland). Blood (approx 300 μl) is collected in 1 ml MiniCollect K3EDTA plasma-tube (Greiner-Bio-One GmbH, Frickenhausen, Germany), inverted, and stored on ice. Tubes are centrifuged 3000×g (5000 rpm in table centrifuge) for 10 min at 4° C. and plasma obtained. Plasma samples are stored at −20° C. until analysis. A total of ˜2.5 ml blood is obtained during OGTT (˜0.3% of body weight).
Statistical analysis was performed by one-way ANOVA followed by the Dunnett's post hoc test for multiple comparison. Student's t-test was performed to compare two paired group. All analysis was performed using GRAPHPAD PRISM software (GraphPad Prism, San Diego, Calif. U.S.A). Incremental area under curve (iAUC) during OGTT was calculated by the trapezoidal method. A value of P<0.05 was considered to be significant. All data are presented as mean±standard error of the mean (SEM).
FIG. 10A, FIG. 10B, FIG. 10C, FIG. 10D, FIG. 10E, and FIG. 10F show the effect of oral sCT versus oral UGPs on glucose tolerance during OGTT in DIO rats. Three different doses of oral sCT/UGP284/UGP298/UGP302 containing 0.5, 1 and 2 mg/kg compound were applied by gavage twice daily to 4 groups of rats for 3 days prior to OGTT. The experimental set-up was a cross-over design. * P<0.05, ** P<0.01, *** P<0.001 vs oral vehicle. Results are presented as means±SEM.

The nature of experiment [2]: Example 2: OGTT after 3 days of oral treatment in DIO rats. It is filed as in vivo, rat. To be noted: 0.5, 1 and 2 mg/kg p.o. b.i.d. 3 days prior to OGTT, cross-over, vs oral vehicle. How it is done: as §1, §2
Following the initial (1st) OGTT, animals are randomized into treatment groups based on FBG and BW. Animals will be pre-treated 3 days (b.i.d.) prior to 2nd OGTT. Dosing will be performed in the morning (7-8 am) and afternoon (3-4 pm).
The study was performed in an x-over design with each animal being its own control.
as §3
Whole blood glucose levels were determined with an ACCU-CHEK® Avia blood glucose meter (Roche Diagnostics, Rotkreuz, Switzerland). […]
Statistical analysis was performed by one-way ANOVA followed by the Dunnett's post hoc test for multiple comparison. […] Incremental area under curve (iAUC) during OGTT was calculated by the trapezoidal method. […]
Three different doses of oral sCT/calcitonin mimetic 1 containing 0.5, 1 and 2 mg/kg compound were applied by gavage twice daily to 4 groups of rats for 3 days prior to OGTT. […] FIG. 7A and FIG. 7B show the effect of oral sCT versus oral UGP 302 at a first dosage on glucose tolerance during OGTT in DIO rats as measured in Example 2. FIG. 8A and FIG. 8B show the effect of oral sCT versus oral UGP 302 at a second dosage on glucose tolerance during OGTT in DIO rats as measured in Example 2.

On to “Ac-CSNLSTCVLGKLSQELHKLQTYPRTDVGANAP-NH2 (Ac-CSNLSTCVLGKLSQELHKLQTYPRTDVGANAP-NH2; ends and bridges not checked) [UGP302, calcitonin mimetic]”, for which the “glucose tolerance during OGTT” value in experiment [1] was “improvement in glucose tolerance”.

On to “salmon calcitonin (CSNLSTCVLGKLSQELHKLQTYPRTNTGSGTP-NH2; disulfide 1-7; ends not checked) [sCT, reference compound]”, for which, in experiment [2], the “glucose iAUC during OGTT” value was “significantly reduced glucose iAUC”.
